Patent US12653775B2, “Canine topical formulations and methods thereof” (priority 2023, dated 2026)

Legend:
[1] = tested on: biofilms of Pseudomonas aeruginosa; test: In vitro biofilm eradication study; type: cell-based
[2] = tested on: Methicillin-resistant Staphylococcus pseudintermedius (MRSP) clinical isolate biofilm; test: Minimum biofilm eradication concentration (MBEC) assay, Calgary Biofilm Device; type: cell-based
Experimental: (§1) Minimum biofilm eradication concentration (MBEC) values provide estimates on the concentration of an antimicrobial product required to kill bacterial biofilm.
(§2) The CBD plate was incubated with
(§3) All test articles were tested in triplicate.

[3] = tested on: P. aeruginosa PAE 1103 (multi-drug resistant clinical isolate) biofilm; type: cell-based, Pseudomonas aeruginosa; conditions: MDR P. aeruginosa; TP1 undiluted, micronized silver at lowest concentration 0.05% v/v
Experimental: as §1, §2, §3

[4] = tested on: biofilms of S. pseudintermedius; test: In vitro biofilm eradication study; type: cell-based

Row | Substance | biofilm eradication (in words) [1] | biofilm eradication (in words) ([2]; MRSP, TP1 undiluted, micronized silver at lowest concentration 0.05% v/v) | biofilm eradication (in words) [3] | biofilm eradication (in words) [4] | MBEC ([2]; MRSP clinical isolate biofilm, treated 24 hours at 35° C.)
1 | Silver ions | effective in eradicating the biofilms | effective in eradicating the biofilms | effective in eradicating the biofilms | effective in eradicating the biofilms | 
2 | Gentamicin [reference compound] |  |  |  |  | 0.25 µg/mL
